One assay has as its target T1, Human CD73 (Homo sapiens, UniProt P21589).
T1 construct: purchased R&D Systems; host or cells: CHO cells
T1 sequence (P21589 27-549): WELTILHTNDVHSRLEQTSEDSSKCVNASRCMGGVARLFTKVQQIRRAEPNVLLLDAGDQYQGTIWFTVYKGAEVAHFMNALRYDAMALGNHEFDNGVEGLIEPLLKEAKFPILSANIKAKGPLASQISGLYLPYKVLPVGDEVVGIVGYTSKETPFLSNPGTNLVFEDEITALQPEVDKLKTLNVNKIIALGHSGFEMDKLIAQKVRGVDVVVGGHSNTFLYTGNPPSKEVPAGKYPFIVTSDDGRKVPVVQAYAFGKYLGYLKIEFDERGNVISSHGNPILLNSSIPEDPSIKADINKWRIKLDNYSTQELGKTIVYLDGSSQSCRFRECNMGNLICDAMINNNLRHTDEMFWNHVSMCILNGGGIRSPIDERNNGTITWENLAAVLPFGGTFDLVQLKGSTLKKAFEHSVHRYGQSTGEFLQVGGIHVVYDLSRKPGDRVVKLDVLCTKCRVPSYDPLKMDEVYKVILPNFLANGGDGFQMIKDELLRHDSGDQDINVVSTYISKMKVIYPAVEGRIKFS
Put plainly: CD73 Enzyme Assay (EnzChek PNP/MESG kinetic readout of AMP hydrolysis). The class given is biochemical. The note with it: 0.25 nM hCD73, 25 μM AMP. As to the method: A compound of the present disclosure (5 μL) was transferred to a 384-well assay plate. The compound was added in a 15 point, 3-fold serial dilution (300 μM to 0.0002 μM) in DMSO. […] The plate was immediately placed in a plate reader (Synergy 2 or Spark 10), and a reading was taken every minute for 10 to 20 minutes in a kinetic run at 360 nm. The linear portion of the curve was used to determine the observed rate (initial velocity). Low signal controls containing 100 μM adenosine 5′-(α,β-methylene) diphosphate and high signal controls containing no compound were measured for each plate.
IC50 values were calculated using Dotmatics template equation for 4-parameter fit. Results are expressed as % inhibition using the following equation: […]

Assay [1] concerns the target T2, CD73 on U138 human neuroglioma cells (Homo sapiens, UniProt P21589).
T2 construct: U138 cells were obtained from ATCC and cultured in DMEM with 10% FBS; host or cells: U138 human neuroglioma cells
T2 sequence (P21589 27-549): T1 sequence (P21589 27-549)
Put plainly: CD73 Cell-Based Assay (inorganic phosphate from AMP, malachite green). As to conditions: AMP substrate, 2 hours at 37° C., read-out: CD73 Cell-Based assay IC50. As to the method:
U138 human neuroglioma cells were used in these experiments. U138 cells were obtained from ATCC and cultured in DMEM with 10% FBS. 2500 cells were seeded into 96-well plate with 100 μL of media the day before the experiment. […] After washing, 100 μL of buffer was added to each well, then 100 μL of a mixture of AMP substrate (200 μM) and diluted compound was added to each well. The cells were incubated at 37° C. (with 5% CO2) for 2 hours. 50 μL of supernatant was transferred to a 96-well assay plate and the concentration of inorganic phosphate was determined using malachite green reagent (R&D System; Cat: DY996).

The mark [2] stands for this setting: read-out: CD73 Enzyme Assay IC50.

SMILES strings stand for the structures. Read-outs that look alike come from different tables or passages of the source.

Drawing on patent US12331068B2, “Compositions and methods for inhibiting CD73” (Peloton Therapeutics, Inc., priority 2018, dated 2025), this text covers IC50 for 34 molecules.

The term IC50 denotes the point on the concentration scale where inhibition reaches its midpoint. For `CNC(=O)c1c(Cl)nc2c(ccn2C2O[C@H](COCP(=O)(O)O)[C@@H](O)[C@H]2O)c1NC1CCCC1` (some centres unmarked) [Compound 40], the IC50 on Human CD73 (setting [2]) is 10 to 100 nM.

Regarding `N#Cc1c(Cl)nc2c(ncn2[C@@H]2O[C@H](CS(=O)(=O)CP(=O)(O)O)[C@@H](O)[C@H]2O)c1NC1CC2CC2C1` (some centres unmarked) [Compound 127], the IC50 (at Human CD73 (setting [2]); in assay [1]) was below 10 nM in each case.

With `C[C@H](Nc1c(C#N)c(Cl)nc2c1cnn2[C@@H]1O[C@H](COP(=O)(O)CP(=O)(O)O)[C@@H](O)[C@H]1O)c1ccc(F)cc1` [Compound 247], the IC50 (on Human CD73 (setting [2]); in assay [1]) was below 10 nM each time.

For `N#Cc1nc2c(ccn2[C@@H]2O[C@H](CS(=O)(=O)CP(=O)(O)O)[C@@H](O)[C@@H]2F)c(NC2CC(F)(F)C2)c1C#N` [Compound 174], the IC50 (at Human CD73 (setting [2]); in assay [1]) was 10 to 100 nM in each case.

Regarding `N#Cc1c(Cl)nc2c(ncn2[C@@H]2O[C@H](COCP(=O)(O)O)[C@@H](O)[C@@H]2F)c1N1CCC(F)(F)C1` [Compound 100], the IC50 on Human CD73 (setting [2]) lay within 10 to 100 nM.

`N#Cc1c(Cl)nc2c(ccn2[C@@H]2O[C@H](COCP(=O)(O)O)[C@@H](O)[C@H]2O)c1NC1CC2(CCC2)C1` [Compound 155]: the IC50 (at Human CD73 (setting [2]); in assay [1]) was below 10 nM each time.

For the molecule `C[C@H](Nc1c(C#N)c(Cl)nc2c1cnn2[C@@H]1O[C@H](COP(=O)(O)CP(=O)(O)O)[C@@H](O)[C@H]1O)c1ccccc1F` [Compound 260], the IC50 at Human CD73 (setting [2]) was below 10 nM.

For `C[C@@H](Nc1c(C#N)c(Cl)nc2c1cnn2[C@@H]1O[C@H](CS(=O)(=O)CP(=O)(O)O)[C@@H](O)[C@H]1O)c1ccc(F)cc1` [Compound 191], the IC50 (on Human CD73 (setting [2]); in assay [1]) was below 10 nM each time.

On to `C[C@H](Nc1c(C#N)c(Cl)nc2c1cnn2[C@@H]1O[C@H](COP(=O)(O)CP(=O)(O)O)[C@@H](O)[C@H]1O)c1ccc(C#N)cc1` [Compound 243], for which the IC50 (on Human CD73 (setting [2]); in assay [1]) was below 10 nM each time.

For the molecule `C[C@H](Nc1c(C#N)c(Cl)nc2c1cnn2[C@@H]1O[C@H](CS(=O)(=O)CP(=O)(O)O)[C@@H](O)[C@H]1O)c1ccccc1F` [Compound 199], the IC50 (at Human CD73 (setting [2]); in assay [1]) was below 10 nM each time.

Regarding `Nc1ncnc2c1ncn2[C@@H]1O[C@H](COP(=O)(O)CP(=O)(O)O)[C@@H](O)[C@H]1O` [adenosine 5′-(α,β-methylene) diphosphate, reference compound], at Human CD73 (low signal control compound, read-out: IC50), the IC50 was found to be 50 nM.

Turning to `N#Cc1c(Cl)nc2c(cnn2[C@@H]2O[C@H](COCP(=O)(O)O)[C@@H](O)[C@H]2O)c1N1CCC(F)(F)C1` [Compound 62, ((((2R,3S,4R,5R)-5-(6-chloro-5-cyano-4-(3,3-difluoropyrrolidin-1-yl)-1H-pyrazolo[3,4-b]pyridin-1-yl)-3,4-dihydroxytetrahydrofuran-2-yl)methoxy)methyl)phosphonic acid], the IC50 (on Human CD73 (setting [2]); in assay [1]) was below 10 nM each time.

In the case of `N#Cc1c(Cl)nc2c(cnn2[C@@H]2O[C@H](COCP(=O)(O)O)[C@@H](O)[C@H]2O)c1N1CC[C@@H](F)C1` [Compound 90], the IC50 (on Human CD73 (setting [2]); in assay [1]) was below 10 nM in each case.

As for `N#Cc1c(Cl)nc2c(ncn2[C@@H]2O[C@H](CS(=O)(=O)CP(=O)(O)O)[C@@H](O)[C@H]2O)c1N[C@H]1C[C@H](F)C1` [Compound 136], the half-maximal inhibitory concentration (IC50) was 10 to 100 nM on Human CD73 (setting [2]) and below 10 nM in assay [1].

`N#Cc1c(Cl)nc2c(cnn2[C@@H]2O[C@H](CS(=O)(=O)CP(=O)(O)O)[C@@H](O)[C@H]2O)c1N[C@H]1C[C@@H](F)C1` [Compound 150]: the IC50 (at Human CD73 (setting [2]); in assay [1]) was below 10 nM each time.

`N#Cc1c(Cl)nc2c(ccn2[C@@H]2O[C@H](CS(=O)(=O)CP(=O)(O)O)[C@@H](O)[C@H]2O)c1NC1CC2(CCC2)C1` [Compound 158]: the IC50 (on Human CD73 (setting [2]); in assay [1]) was below 10 nM throughout.

Turning to `C[C@H](Nc1c(C#N)c(Cl)nc2c1ccn2[C@@H]1O[C@H](COP(=O)(O)CP(=O)(O)O)[C@@H](O)[C@H]1O)c1ccc(F)cn1` [Compound 212], the IC50 (on Human CD73 (setting [2]); in assay [1]) was below 10 nM each time.

On to `C[C@H](Nc1c(C#N)c(Cl)nc2c1cnn2[C@@H]1O[C@H](COP(=O)(O)CP(=O)(O)O)[C@@H](O)[C@H]1O)c1ccc(F)cn1` [Compound 271], for which the IC50 at Human CD73 (setting [2]) was below 10 nM.

In the case of `N#Cc1c(Cl)nc2c(ncn2[C@@H]2O[C@H](COCP(=O)(O)O)[C@@H](O)[C@H]2O)c1NC1CC2CC2C1` (some centres unmarked) [Compound 56], the IC50 (at Human CD73 (setting [2]); in assay [1]) was below 10 nM in each case.

In the case of `N#Cc1c(Cl)nc2c(ccn2[C@@H]2O[C@H](CS(=O)(=O)CP(=O)(O)O)[C@@H](O)[C@H]2O)c1NC1CC2CC2C1` (some centres unmarked) [Compound 33], the IC50 (at Human CD73 (setting [2]); in assay [1]) was below 10 nM in each case.

On to `C[C@H](Nc1c(C#N)c(Cl)nc2c1ccn2[C@@H]1O[C@H](COP(=O)(O)CP(=O)(O)O)[C@@H](O)[C@H]1O)c1ccc(C#N)cc1` [Compound 223], for which the IC50 (on Human CD73 (setting [2]); in assay [1]) was below 10 nM in each case.

As for `N#Cc1c(Cl)nc2c(ccn2[C@@H]2O[C@H](COCP(=O)(O)O)[C@@H](O)[C@@H]2F)c1N1CCC(F)(F)C1` [Compound 98], the IC50 at Human CD73 (setting [2]) is 10 to 100 nM.

With `N#Cc1c(Cl)nc2c(ccn2[C@@H]2O[C@H](COCP(=O)(O)O)[C@@H](O)[C@H]2O)c1N[C@@H]1CCC(F)(F)C1` [Compound 46], the concentration for half-maximal inhibition (IC50) (at Human CD73 (setting [2]); in assay [1]) was below 10 nM throughout.

Regarding `N#Cc1c(Cl)nc2c(ccn2[C@@H]2O[C@H](COCP(=O)(O)O)[C@@H](O)[C@H]2O)c1N1C[C@@H](F)[C@H](F)C1` [Compound 68], the IC50 (at Human CD73 (setting [2]); in assay [1]) was below 10 nM in each case.

As to `N#Cc1c(Cl)nc2c(ccn2[C@@H]2O[C@H](COP(=O)(O)CP(=O)(O)O)[C@@H](O)[C@H]2O)c1N1CC2CC2C1` (some centres unmarked) [Compound 29], the IC50 (on Human CD73 (setting [2]); in assay [1]) was below 10 nM throughout.

For `N#Cc1c(Cl)nc2c(ncn2[C@@H]2O[C@H](COCP(=O)(O)O)[C@@H](O)[C@H]2O)c1N1CCC(F)(F)C1` [Compound 94, ((((2R,3S,4R,5R)-5-(5-chloro-6-cyano-7-(3,3-difluoropyrrolidin-1-yl)-3H-imidazo[4,5-b]pyridin-3-yl)-3,4-dihydroxytetrahydrofuran-2-yl)methoxy)methyl)phosphonic acid], the IC50 (on Human CD73 (setting [2]); in assay [1]) was below 10 nM each time.

As to `N#Cc1c(Cl)nc2c(cnn2[C@@H]2O[C@H](COCP(=O)(O)O)[C@@H](O)[C@H]2O)c1NC1CC2CC2C1` (some centres unmarked) [Compound 70], the 50% inhibitory concentration (IC50) (on Human CD73 (setting [2]); in assay [1]) was below 10 nM in each case.

As to `N#Cc1c(OCCO)nc2c(ccn2[C@@H]2O[C@H](COCP(=O)(O)O)[C@@H](O)[C@H]2O)c1N1CC2CCCC2C1` (some centres unmarked) [Compound 52], the IC50 at Human CD73 (setting [2]) was above 100 nM.

For `C[C@@H](Nc1c(C#N)c(Cl)nc2c1cnn2[C@@H]1O[C@H](COP(=O)(O)CP(=O)(O)O)[C@@H](O)[C@H]1O)c1ccc(C#N)cc1` [Compound 249], the IC50 (at Human CD73 (setting [2]); in assay [1]) was below 10 nM each time.

For `N#Cc1c(OCCO)nc2c(ccn2[C@@H]2O[C@H](COCP(=O)(O)O)[C@@H](O)[C@H]2O)c1NC1CCCC1` [Compound 2], the IC50 at Human CD73 (setting [2]) lay in the range of 10 to 100 nM.

`N#Cc1nc2c(ccn2[C@@H]2O[C@H](CS(=O)(=O)CP(=O)(O)O)[C@@H](O)[C@@H]2F)c(N)c1C#N` [Compound 189]: at Human CD73 (setting [2]), the IC50 is above 100 nM.

In the case of `C[C@@H](Nc1c(C#N)c(Cl)nc2c1cnn2[C@@H]1O[C@H](COP(=O)(O)CP(=O)(O)O)[C@@H](O)[C@H]1O)c1ccc(F)cn1` [Compound 258], the IC50 at Human CD73 (setting [2]) is below 10 nM.

With `N#Cc1c(Cl)nc2c(cnn2[C@@H]2O[C@H](COCP(=O)(O)O)[C@@H](O)[C@@H]2F)c1N1CCC(F)(F)C1` [Compound 99, ((((2R,3R,4S,5R)-5-(6-chloro-5-cyano-4-(3,3-difluoropyrrolidin-1-yl)-1H-pyrazolo[3,4-b]pyridin-1-yl)-4-fluoro-3-hydroxytetrahydrofuran-2-yl)methoxy)methyl)phosphonic acid], on Human CD73 (setting [2]), the IC50 is above 100 nM.

With `C[C@@H](Nc1c(C#N)c(Cl)nc2c1cnn2[C@@H]1O[C@H](COP(=O)(O)CP(=O)(O)O)[C@@H](O)[C@H]1O)c1ccc(F)cc1` [Compound 270], the IC50 at Human CD73 (setting [2]) was below 10 nM.
